Two compounds from patent publication US11690803B2, “Tumor pH-shiftable coating and the nucleus-directed nanoparticles facilitate the targeted chemotherapy and gene therapy against multiple cancers and use thereof” (National Yang Ming Chiao Tung University, priority 2019, dated 2023) can be followed below.

A short description of data set [1]: Biosafety evaluation by serum biochemical tests. Format: in vivo. Conditions: tumor-bearing mice, 48 h after last treatment.
Description: Tumor-bearing mice were treated as described above. Blood samples were taken from the orbital sinus of mice at 48 h after the final injection. The harvested samples were put at 37° C. to induce the clotting reaction and centrifuged for 15 min. The resultant serum samples were stored at −80° C. until further analysis. The functions of liver, kidney and heart were examined by detecting the serum levels of glutamate pyruvate transaminase (GPT), creatinine (CRE), and creatine kinase-MB (CK-MB) using the corresponding activity assay kits (Fujifilm, Tokyo, Japan) according to the manufacturer's instruction using a clinical dry chemistry analyzer (Fuji Dri-Chem 7000V, Fujifilm Corporation, Tokyo, Japan).
Data shown indicate the mean±SD of four experiments.
The subject of another data set is RBCs from rat. The data set can be described thus: Hemolysis assay. Format: cell-based. The settings on record: 37° C., 24 h, Triton X as positive control. As for the experimental part:
7×10^7 RBCs from rat were separated by centrifugation of whole blood. The supernatant containing plasma and platelets were removed. The pellets were washed by PBS until the supernatant was clear. Different formulations were diluted to a required concentration and added to the tubes containing 1 mL diluted RBCs. The cell suspension was mixed gently and incubated at 37° C. for 24 h. Triton X-100 was served as a positive control. Hemoglobin released from RBCs was measured spectrophotometrically. The concentration of the formed product was measured at 540 nm using an ELISA reader (TECAN, Mannedorf, Switzerland) to qualify the toxicity of liposomes to RBCs.

In the case of `O=C1[O][Pt]2([NH][C@@H]3CCCC[C@H]3[NH]2)[O]C1=O` [Oxa, oxaliplatin], the “Serum levels of GPT or GOT, CRE, and CK-MB or LDH” value in data set [1] is given as “remarkably escalated”.
Regarding Triton X-100, in the data set on RBCs from rat, the Hemolysis amounted to 100%.
